“And” between values parts separate entries of the source, which are not always exact repeats. Equal entries are not always repeated.
Molecular target: T1, Human NHE3 (Homo sapiens, UniProt P48764)
T1 construct: myc
T1 sequence (P48764 26-834): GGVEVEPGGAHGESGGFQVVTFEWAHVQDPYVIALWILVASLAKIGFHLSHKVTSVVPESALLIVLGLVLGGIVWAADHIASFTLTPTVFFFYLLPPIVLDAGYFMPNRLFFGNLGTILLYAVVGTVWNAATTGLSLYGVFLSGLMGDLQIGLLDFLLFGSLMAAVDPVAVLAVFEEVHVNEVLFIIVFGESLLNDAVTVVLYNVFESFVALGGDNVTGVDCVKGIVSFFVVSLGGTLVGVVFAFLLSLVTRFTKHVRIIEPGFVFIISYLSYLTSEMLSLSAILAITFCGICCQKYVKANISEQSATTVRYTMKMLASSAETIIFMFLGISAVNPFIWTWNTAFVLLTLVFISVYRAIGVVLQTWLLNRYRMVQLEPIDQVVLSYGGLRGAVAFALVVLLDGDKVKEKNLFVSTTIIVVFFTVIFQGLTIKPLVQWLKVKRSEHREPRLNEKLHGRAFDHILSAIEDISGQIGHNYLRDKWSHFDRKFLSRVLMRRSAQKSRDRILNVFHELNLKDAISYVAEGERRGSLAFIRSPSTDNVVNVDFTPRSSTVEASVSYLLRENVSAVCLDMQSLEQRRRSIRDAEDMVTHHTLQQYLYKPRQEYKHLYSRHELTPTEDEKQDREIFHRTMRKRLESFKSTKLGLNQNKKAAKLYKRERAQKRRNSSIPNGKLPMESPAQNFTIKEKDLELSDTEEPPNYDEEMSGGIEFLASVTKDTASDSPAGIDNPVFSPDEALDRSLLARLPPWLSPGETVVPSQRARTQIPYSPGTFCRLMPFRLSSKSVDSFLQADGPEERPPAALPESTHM
Experiment: NHE3 activity assay (intracellular pH recovery, BCECF-AM) in human NHE3 over-expressing NHD C8 cells
Assay type: cell-based
Description: Sodium hydrogen exchanger activity specific to NHE3 was achieved by overexpressing human NHE3 in an endogenously NHE-deficient cell line generated by chemical-induced mutagenesis. After the mutagenesis, NHE-deficient cells were selected by loading lithium into the cells and then exposing them to an acidic extracellular environment. Under these conditions, NHE exchanges intracellular lithium for extracellular protons, thus only NHE-deficient cells can avoid a toxic intracellular acidosis and survive. Dede cells (ATCC ccl-39), grown to 50% confluence in McCoy’s 5A medium (GE Healthcare) with 10% FBS and antibiotic/antimycotic solution (GE Healthcare) in a T75 flask, were treated with 500 μg/mL of EMS (ethyl methanesulfonate, Sigma-Aldrich) in medium for 20 hours for mutagenesis and washed twice with phosphate buffered saline (PBS). The cells were then trypsinized, plated in two T175 flasks and cultured in fresh medium without EMS for 2 days. […] The intracellular pH change is then measured by an intracellular pH-sensitive dye, 2’,7’-Bis-(2-carboxyethyl)-5(and-6)-carboxyfluorescein, acetoxymethyl ester (BCECF-AM, ThermoFisher Scientific) upon reintroduction of sodium. […] The plate was immediately read for fluorescence at the excitation wavelength of 505 nm and the emission wavelength of 550 nm using a kinetic method by Molecular Device, SpectraMax i3. […]

CN1Cc2c(Cl)cc(Cl)cc2[C@H](c2cccc(S(=O)(=O)NCCOCCOCCN/C(=N\C(N)=O)NCCCCN/C(=N/C(N)=O)NCCOCCOCCNS(=O)(=O)c3cccc([C@@H]4CN(C)Cc5c(Cl)cc(Cl)cc54)c3)c2)C1.Cl.Cl [LY3304000, (Z)-[[4-[[(Z)-N’-carbamoyl-N-[2-[2-[2-[[3-[(4S)-6,8-dichloro-2-methyl-3,4-dihydro-1H-isoquinolin-4-yl]phenyl]sulfonylamino]ethoxy]ethoxy]ethyl]carbamimidoyl]amino]butylamino]-[2-[2-[2-[[3-[(4S)-6,8-dichloro-2-methyl-3,4-dihydro-1H-isoquinolin-4-yl]phenyl]sulfonylamino]ethoxy]ethoxy]ethylamino]methylene]urea dihydrochloride]
slope of the concentration-response curve (4-parameter fit, representative curve): 0.8
IC50 (geometric mean of individual IC50, n=7): 5.8 nM and 5.76 nM
